Among the data in article PMC9506480, “Synthesis and Evaluation of Antiproliferative Activity, Topoisomerase IIα Inhibition, DNA Binding and Non-Clinical Toxicity of New Acridine–Thiosemicarbazone Derivatives” (Pharmaceuticals, 2022) are IC50 and melting point values, retold here.

Molecules are shown by their SMILES.

Data set [1] has as its system HCT116 (human colon carcinoma). The data set is described as follows: Alamar blue cytotoxicity assay, HCT116. As to conditions: HCT-116, 72 h incubation. It is filed as cell-based. As to the method:
(§1) The in vitro cytotoxic activity of the compounds (Table 1) was evaluated against cancer cell lines HCT116 (human colon carcinoma), HepG2 (human hepatocellular carcinoma), B16F10 (murine melanoma carcinoma) and non-cancerous cell line MRC-5 (human lung fibroblast) using the Alamar blue assay after 72 h of incubation; doxorubicin (DOX) was used as a positive control. The unsubstituted derivatives on the acridine cores were encoded as CL, and the disubstituted derivatives as DL.
(§2) The human cancer cell lines HCT116 (colon carcinoma) and HepG2 (hepatocellular carcinoma), the mouse cancer cell line B16-F10 (melanoma), and the non-cancerous human cell line MRC-5 (lung fibroblast) were obtained from the American Type Culture Collection (ATCC, Manassas, VA, USA) and cultured according to the ATCC animal cell culture guide. All cell lines tested negative for mycoplasma using a mycoplasma stain kit.
(§3) Cell viability was measured using the Alamar blue assay, as previously described. Cells were seeded in 96-well plates for all experiments. The compounds were dissolved in dimethyl sulfoxide (DMSO, Sigma-Aldrich) and added to each well in eight serial concentrations ranging from 0.19 to 25 μg/mL. As a positive control, doxorubicin was used. After 72 h of treatment, 20 μL of resazurin (0.312 mg/mL) was added to each well. A SpectraMax 190 Micro-plate Reader was used to measure absorbances at 570 and 595 nm (Molecular Devices, Sunnyvale, CA, USA). Nonlinear regression with 95% confidence intervals (CI 95%) was used to calculate the inhibitory concentration of 50% (IC50) using GraphPad Prism software (Intuitive Software for Science; San Diego, CA, USA).

Data set [2] deals with HepG2 (human hepatocellular carcinoma). The data set is described as follows: Alamar blue cytotoxicity assay, HepG2. It counts as cell-based. The note with it: 72 h incubation. As to the method: as §1, §2, §3
Data set [3] concerns MRC-5 (human lung fibroblast). The data set is described as follows: Alamar blue cytotoxicity assay, non-cancerous MRC-5. As to conditions: MRC5, 72 h incubation, non-cancerous cell. It is filed as cell-based. As to the method:
as §1, §2, §3

Data set [4] has as its system B16-F10 (murine melanoma). The data set is described as follows: Alamar blue cytotoxicity assay, B16-F10. It is filed as cell-based. The note with it: Mus musculus, 72 h incubation. As to the method: as §1, §2, §3

On to `S=C(N/N=C/c1ccc(Cl)cc1Cl)Nc1c2ccccc2nc2ccccc12` [CL-04, (E)-N-(acridin-9-yl)-2-(2,4-dichlorobenzylidene)hydrazine-1-carbothioamide], for which the IC50 in data set [1], in data set [2] and in data set [3] was greater than 60 µM throughout.

On to `O=[N+]([O-])c1ccc(/C=N/NC(=S)Nc2c3ccccc3nc3ccccc23)cc1` [CL-05, (E)-N-(acridin-9-yl)-2-(4-nitrobenzylidene)hydrazine-1-carbothioamide], for which the IC50 was greater than 60 µM in data set [1], greater than 60 µM in data set [2], 22.7 µM in data set [4] and 26.8 µM in data set [3].

Consider `Cc1ccc(/C=N/NC(=S)Nc2c3ccccc3nc3ccccc23)cc1` [CL-06, (E)-N-(acridin-9-yl)-2-(4-methylbenzylidene)hydrazine-1-carbothioamide], for which the IC50 in data set [1] came to 64.8 µM; in data set [2], 58.1 µM; in data set [4], 23.5 µM; in data set [3], 28 µM.

Compound `COc1ccc2nc3cc(Cl)ccc3c(NC(=S)N/N=C/c3ccc(Cl)cc3)c2c1` [DL-02, (E)-N-(6-chloro-2-methoxyacridin-9-yl)-2-(4-chlorobenzylidene)hydrazine-1-carbothioamide] registered a melting point of 144 to 145 °C. In data set [1], this compound registered an IC50 greater than 60 µM. For the same compound, the IC50 in data set [2] was greater than 60 µM. Also, half-maximal inhibition in data set [4] (IC50) was put at 30.6 µM. The compound also came in with a half-maximal inhibitory concentration (IC50) in data set [3] greater than 60 µM.

Take `Oc1cccc(/C=N/NC(=S)Nc2c3ccccc3nc3ccccc23)c1` [CL-08, (E)-N-(acridin-9-yl)-2-(3-hydroxybenzylidene)hydrazine-1-carbothioamide]: the IC50 in data set [1] was 39.2 µM; in data set [2] it was 49.4 µM; in data set [4] it was 21.3 µM; in data set [3], 33.4 µM.

As for `COc1ccc(/C=N/NC(=S)Nc2c3ccc(Cl)cc3nc3ccc(OC)cc23)cc1` [DL-03, (E)-N-(6-chloro-2-methoxyacridin-9-yl)-2-(4-methoxybenzylidene)hydrazine-1-carbothioamide], the melting point amounted to 148 °C. Moreover, the half-inhibitory concentration (IC50) in data set [1] was greater than 60 µM. For the same compound, the IC50 in data set [2] was greater than 60 µM. Besides, the concentration for half-maximal inhibition (IC50) in data set [4] was greater than 60 µM. The compound also had an IC50 in data set [3] greater than 60 µM.

As to `COc1cccc2c1C(=O)c1c(O)c3c(c(O)c1C2=O)C[C@@](O)(C(=O)CO)C[C@@H]3O[C@H]1C[C@H](N)[C@H](O)[C@H](C)O1` [DOX, doxorubicin, reference compound], the IC50 was found to be 0.15 µM in data set [1], 0.15 µM in data set [2], 0.03 µM in data set [4] and 2.22 µM in data set [3].

Regarding `S=C(N/N=C/c1ccc(Br)cc1)Nc1c2ccccc2nc2ccccc12` [CL-10, (E)-N-(acridin-9-yl)-2-(4-bromobenzylidene)hydrazine-1-carbothioamide], the IC50 in data set [1], in data set [2] and in data set [3] was greater than 60 µM in each case.

Take `CN(C)c1ccc(/C=N/NC(=S)Nc2c3ccccc3nc3ccccc23)cc1` [CL-09, (E)-N-(acridin-9-yl)-2-(4-(dimethylamino)benzylidene)hydrazine-1-carbothioamide]: the concentration for half-maximal inhibition (IC50) in data set [1], in data set [2] and in data set [3] was greater than 60 µM each time.

Regarding `COc1ccc(/C=N/NC(=S)Nc2c3ccccc3nc3ccccc23)cc1` [CL-03, (E)-N-(acridin-9-yl)-2-(4-methoxybenzylidene)hydrazine-1-carbothioamide], the IC50 in data set [1], in data set [2], in data set [4] and in data set [3] was greater than 70 µM each time.

`S=C(N/N=C/c1ccc(Cl)cc1)Nc1c2ccccc2nc2ccccc12` [CL-02, (E)-N-(acridin-9-yl)-2-(4-chlorobenzylidene)hydrazine-1-carbothioamide]: the IC50 in data set [1], in data set [2] and in data set [3] was greater than 70 µM in each case.

For the compound `S=C(N/N=C/c1ccccc1)Nc1c2ccccc2nc2ccccc12` [CL-01, (E)-N-(acridin-9-yl)-2-benzylidenehydrazine-1-carbothioamide], the IC50 in data set [1], in data set [2] and in data set [3] was greater than 70 µM each time.
